# Measured values taken from ChEMBL document CHEMBL2029295, “Discovery and optimization of a potent and selective triazolopyridinone series of c-Met inhibitors” (Bioorg Med Chem Lett, 2012).
# How the values were obtained:
# [1] = Solubility of the compound in 0.1N HCl; assay type: physicochemical
# [2] = Solubility of the compound in phosphate buffered saline; assay type: physicochemical
# [3] = Solubility of the compound in simulated intestinal fluid; assay type: physicochemical
# [4] = Intrinsic clearance in rat liver microsomes; assay type: ADME, Microsome; conditions: read-out: CLH
# [5] = Intrinsic clearance in mouse liver microsomes; assay type: ADME, Microsome; conditions: read-out: CLH
# [6] = Intrinsic clearance in human liver microsomes; assay type: ADME, Microsome; conditions: read-out: CLH
# [7] = Plasma protein binding in rat by equilibrium dialysis; assay type: ADME, cell-free; conditions: read-out: PPB (converted)
# [8] = Plasma protein binding in mouse by equilibrium dialysis; assay type: ADME, cell-free; conditions: read-out: PPB (converted)
# [9] = Plasma protein binding in human by equilibrium dialysis; assay type: ADME, cell-free; conditions: read-out: PPB (converted)
# [10] = Clearance in Sprague-Dawley rat at 0.25 mg/kg, iv; assay type: ADME, organism-based; set-up: dose 0.25 mg/kg, route intravenous; conditions: in vivo
# [11] = Volume of distribution at steady state in Sprague-Dawley rat at 0.25 mg/kg, iv; assay type: ADME, organism-based; set-up: dose 0.25 mg/kg, route intravenous; conditions: in vivo, read-out: Vdss
# [12] = Half life in Sprague-Dawley rat at 0.25 mg/kg, iv; assay type: ADME, organism-based; set-up: dose 0.25 mg/kg, route intravenous; conditions: in vivo
# [13] = AUC (0 to infinity) in Sprague-Dawley rat at 2 mg/kg, po; assay type: ADME, organism-based; set-up: time infinity, dose 2 mg/kg, route oral; conditions: plasma
# [14] = Oral bioavailability in Sprague-Dawley rat at 2 mg/kg; assay type: ADME, organism-based; conditions: in vivo
# [15] = target: Vascular endothelial growth factor receptor 2 (Homo sapiens) (UniProt P35968); test: Inhibition of VEGFR2 assessed as remaining activity at 1 uM relative to control
# Sequence of Vascular endothelial growth factor receptor 2 (Homo sapiens) (P35968 whole entry): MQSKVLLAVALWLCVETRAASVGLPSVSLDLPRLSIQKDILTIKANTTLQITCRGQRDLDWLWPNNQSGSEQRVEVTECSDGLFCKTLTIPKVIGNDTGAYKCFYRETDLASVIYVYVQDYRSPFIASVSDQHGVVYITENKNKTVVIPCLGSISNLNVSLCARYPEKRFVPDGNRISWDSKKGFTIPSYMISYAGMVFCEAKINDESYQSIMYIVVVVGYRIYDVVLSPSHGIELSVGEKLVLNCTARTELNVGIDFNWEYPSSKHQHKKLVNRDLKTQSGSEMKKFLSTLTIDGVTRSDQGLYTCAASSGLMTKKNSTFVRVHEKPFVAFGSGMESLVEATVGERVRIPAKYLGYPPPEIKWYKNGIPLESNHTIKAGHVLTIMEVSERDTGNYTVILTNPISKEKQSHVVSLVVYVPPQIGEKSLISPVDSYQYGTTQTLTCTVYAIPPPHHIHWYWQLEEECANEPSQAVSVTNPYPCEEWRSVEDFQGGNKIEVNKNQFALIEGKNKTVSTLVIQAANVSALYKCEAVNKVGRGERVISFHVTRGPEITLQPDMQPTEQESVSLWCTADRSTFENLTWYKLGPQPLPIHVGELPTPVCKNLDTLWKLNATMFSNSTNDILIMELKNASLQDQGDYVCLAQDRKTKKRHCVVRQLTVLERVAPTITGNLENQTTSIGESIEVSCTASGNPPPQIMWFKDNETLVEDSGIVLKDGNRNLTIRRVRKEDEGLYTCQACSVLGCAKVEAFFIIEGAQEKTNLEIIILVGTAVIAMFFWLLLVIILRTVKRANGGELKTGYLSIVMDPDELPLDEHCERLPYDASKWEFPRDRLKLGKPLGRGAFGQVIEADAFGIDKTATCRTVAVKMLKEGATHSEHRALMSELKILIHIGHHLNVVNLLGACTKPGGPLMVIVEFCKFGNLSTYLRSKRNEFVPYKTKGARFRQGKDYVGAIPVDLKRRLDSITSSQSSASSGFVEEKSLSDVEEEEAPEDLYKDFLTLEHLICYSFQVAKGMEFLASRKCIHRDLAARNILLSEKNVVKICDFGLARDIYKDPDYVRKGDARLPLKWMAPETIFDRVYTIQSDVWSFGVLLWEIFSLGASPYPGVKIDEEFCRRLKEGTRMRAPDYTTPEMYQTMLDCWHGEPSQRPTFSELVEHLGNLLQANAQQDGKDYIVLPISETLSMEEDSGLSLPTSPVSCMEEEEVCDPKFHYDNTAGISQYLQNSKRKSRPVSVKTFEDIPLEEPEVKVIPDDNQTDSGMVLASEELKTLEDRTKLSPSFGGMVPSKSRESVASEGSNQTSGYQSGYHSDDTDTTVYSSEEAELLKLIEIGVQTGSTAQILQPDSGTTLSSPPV
# [16] = target: Mast/stem cell growth factor receptor Kit (Homo sapiens) (UniProt P10721); test: Inhibition of KIT assessed as remaining activity at 1 uM relative to control
# Sequence of Mast/stem cell growth factor receptor Kit (Homo sapiens) (P10721 whole entry): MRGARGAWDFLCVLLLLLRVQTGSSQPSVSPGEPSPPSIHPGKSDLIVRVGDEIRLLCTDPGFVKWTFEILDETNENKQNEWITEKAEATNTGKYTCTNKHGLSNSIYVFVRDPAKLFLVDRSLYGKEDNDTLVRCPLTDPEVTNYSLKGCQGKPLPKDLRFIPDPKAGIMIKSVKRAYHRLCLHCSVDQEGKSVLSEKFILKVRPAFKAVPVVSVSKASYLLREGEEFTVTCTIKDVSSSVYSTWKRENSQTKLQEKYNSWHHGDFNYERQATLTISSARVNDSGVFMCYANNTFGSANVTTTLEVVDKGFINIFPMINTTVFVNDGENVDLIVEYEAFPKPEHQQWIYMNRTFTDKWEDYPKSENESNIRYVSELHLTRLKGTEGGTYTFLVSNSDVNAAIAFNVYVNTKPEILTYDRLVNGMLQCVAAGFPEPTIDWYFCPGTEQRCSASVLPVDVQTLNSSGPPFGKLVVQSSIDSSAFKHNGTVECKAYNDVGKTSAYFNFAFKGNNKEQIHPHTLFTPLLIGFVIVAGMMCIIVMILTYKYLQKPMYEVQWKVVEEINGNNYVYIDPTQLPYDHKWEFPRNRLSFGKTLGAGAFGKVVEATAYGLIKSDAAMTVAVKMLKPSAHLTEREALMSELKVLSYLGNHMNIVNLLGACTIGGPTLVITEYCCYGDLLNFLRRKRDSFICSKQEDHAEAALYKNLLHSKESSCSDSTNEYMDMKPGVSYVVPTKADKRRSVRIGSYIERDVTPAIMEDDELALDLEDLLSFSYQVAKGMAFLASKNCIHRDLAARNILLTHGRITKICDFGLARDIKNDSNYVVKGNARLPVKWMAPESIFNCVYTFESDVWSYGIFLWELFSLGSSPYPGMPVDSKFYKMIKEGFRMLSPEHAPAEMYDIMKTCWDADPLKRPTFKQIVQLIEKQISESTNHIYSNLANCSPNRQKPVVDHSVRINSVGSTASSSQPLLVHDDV
# [17] = target: Platelet-derived growth factor receptor beta (Homo sapiens) (UniProt P09619); test: Inhibition of PDGFRB assessed as remaining activity at 1 uM relative to control
# Sequence of Platelet-derived growth factor receptor beta (Homo sapiens) (P09619 whole entry): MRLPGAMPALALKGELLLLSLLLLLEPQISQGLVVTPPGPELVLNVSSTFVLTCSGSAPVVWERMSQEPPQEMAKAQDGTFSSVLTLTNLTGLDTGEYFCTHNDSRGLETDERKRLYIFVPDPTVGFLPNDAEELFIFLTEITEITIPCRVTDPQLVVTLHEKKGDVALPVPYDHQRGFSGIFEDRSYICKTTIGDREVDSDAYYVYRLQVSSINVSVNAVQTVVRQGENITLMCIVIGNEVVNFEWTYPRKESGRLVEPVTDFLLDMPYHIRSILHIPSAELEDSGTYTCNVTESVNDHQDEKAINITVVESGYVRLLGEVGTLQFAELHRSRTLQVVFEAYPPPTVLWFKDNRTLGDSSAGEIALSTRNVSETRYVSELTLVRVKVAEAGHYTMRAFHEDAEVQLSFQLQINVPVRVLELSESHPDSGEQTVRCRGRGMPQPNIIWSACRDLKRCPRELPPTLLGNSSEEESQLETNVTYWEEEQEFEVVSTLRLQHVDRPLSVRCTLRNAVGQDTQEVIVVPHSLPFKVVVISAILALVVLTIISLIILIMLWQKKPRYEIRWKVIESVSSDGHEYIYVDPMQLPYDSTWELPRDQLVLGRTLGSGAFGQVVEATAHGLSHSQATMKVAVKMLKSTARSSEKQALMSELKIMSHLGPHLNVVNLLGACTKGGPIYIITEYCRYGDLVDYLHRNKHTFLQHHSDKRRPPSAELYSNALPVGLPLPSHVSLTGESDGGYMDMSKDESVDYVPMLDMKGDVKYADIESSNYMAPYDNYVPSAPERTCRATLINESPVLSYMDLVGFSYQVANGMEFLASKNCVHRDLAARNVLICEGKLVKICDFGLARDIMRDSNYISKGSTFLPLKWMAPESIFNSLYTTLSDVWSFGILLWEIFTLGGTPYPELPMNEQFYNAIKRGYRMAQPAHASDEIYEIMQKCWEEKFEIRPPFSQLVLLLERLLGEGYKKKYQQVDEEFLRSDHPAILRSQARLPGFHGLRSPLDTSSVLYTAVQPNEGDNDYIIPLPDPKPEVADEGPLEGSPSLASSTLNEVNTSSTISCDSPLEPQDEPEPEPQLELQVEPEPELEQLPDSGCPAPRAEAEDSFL
# Mus musculus = test: Inhibition of HGF-induced phosphorylation of c-Met in BALB/c mice mouse liver at 10 mg/kg, po administered 1 to 24 hrs before HGF-induction measured after 5 mins; assay type: functional
# Plasma = test: Plasma concentration in BALB/c mouse at 10 mg/kg, po; assay type: ADME, organism-based; set-up: dose 10 mg/kg, route oral; conditions: in vivo
SMILES,solubility [1] [µg/mL],solubility [2] [µg/mL],solubility [3] [µg/mL],microsomal CLint [4] [µL/min/mg],microsomal CLint [5] [µL/min/mg],microsomal CLint [6] [µL/min/mg],fraction unbound [7],fraction unbound [8],fraction unbound [9],clearance [10] [mL/min/kg],Vd [11] [L/kg],half-life [12] [h],AUC(0-inf) [13] [ng·h/mL],bioavailability [14] [%],Activity [15] [%],Activity [16] [%],Activity [17] [%],inhibition in vivo at 10 mg/kg (Mus musculus) [%],concentration (Plasma) [nM]
Cc1cc(-n2ccc3nnn(Cc4ccc5ncccc5c4)c3c2=O)sn1,80.1,< 1,4.8,–,–,–,–,–,–,–,–,–,–,–,–,–,–,–,–
Cc1cc(N2CCc3nnn(Cc4ccc5ncccc5c4)c3C2=O)sn1,43.2,2.2,< 1,–,–,–,–,–,–,–,–,–,–,–,–,–,–,–,–
COCCOc1cnc2ccc([C@H](C)n3nnc4ccn(-c5ccc(F)c(F)c5)c(=O)c43)cc2c1,128,11.1,37.7,105,98,120,0.02,0.044,0.045,18.8,2.38,1.81,638,36,–,–,–,–,–
COCCOc1cnc2ccc([C@H](C)n3nnc4ccn(-c5cc(C)ns5)c(=O)c43)cc2c1,37,8.7,39.7,89,68,84,0.018,0.027,0.012,9.32,2.53,3.4,1560,43,34,26,10,89,< 200
O=C1c2c(nnn2Cc2ccc3ncccc3c2)CCN1c1ccccc1,≥ 200,≥ 200,60.4,–,–,–,–,–,–,–,–,–,–,–,–,–,–,–,–
Cc1cc(-n2ccc3nnn([C@@H](C)c4ccc5ncccc5c4)c3c2=O)sn1,≥ 200,4.5,22.4,–,–,–,–,–,–,–,–,–,–,–,–,–,–,–,–
COCCOc1cnc2ccc(Cn3nnc4ccn(-c5cc(C)ns5)c(=O)c43)cc2c1,13.7,2.5,9.8,–,–,–,–,–,–,–,–,–,–,–,–,–,–,–,–
